In patent publication US9855249B2, “Isoxazole compounds and methods for the treatment of cystic fibrosis” (FLATLEY DISCOVERY LAB, LLC, priority 2014, dated 2018):

Tested on: CFTR mediated chloride current in Primary CF airway epithelial cells
Assay: Equivalent current assay in primary CF airway epithelial cells (NAUC)
Assay type: cell-based
Conditions: 24 h treatment, stimulated with forskolin and VX770, normalized to positive control 3 μM VX809
Protocol: Primary CF airway epithelial cells were obtained from the UNC Cystic Fibrosis Tissue Procurement and Cell Culture Core. The cells are grown at 37° C. in a Heracell 150i incubator using growth media (BEGM, Fischer). Cells were then transferred to differentiation media (ALI, UNC) for a minimum of 4 weeks on coated Costar snapwells. Two days before the Ussing assay the mucus on the apical surface of the cells was aspirated after incubating with 200 μL of differentiation Media for at least thirty (30) minutes. One day before the Ussing assay test compounds were added to the basolateral surface of the cells at various test concentrations dissolved in DMSO. Duplicate wells were prepared giving a n=3 or n=4 protocol.
Cells were treated for 24 hours with various combinations and concentrations of the test articles, reference standard (3 μM VX809, positive control). Compounds stock solutions were prepared in DMSO and diluted 1/1000 into ALI media to their final assay concentration. Cells were treated with combination solutions (2 mL of each dilution) and incubated at 37° C. for 24 h.
For the equivalent current assay, cells on four Transwell (24-well) plates were treated. Each Transwell plate was filled with 200 μl of HBS on the apical surface and 2 ml on the basolateral surface. Plates were placed horizontally in a heated mount at 37° C., and equilibrated for several minutes. Resting current was measured for 15 min and then blocked by the apical addition of 5 μM benzamil. After 20 min, 10 μM forskolin and 1 μM VX770 were added to both the apical and basolateral side to stimulate CFTR. An increase in chloride current is seen as an upward deflection of the trace. After another 30 min, CFTR-172 (a CFTR inhibitor, 2 μM) and/or bumetanide (20 μM) was added to block CFTR mediated chloride current.
The raw data, current vs. time for the Ussing chamber (sampling interval: 10 s) and voltage vs. time and resistance vs. time for the equivalent current assay (sampling interval: 5 minutes) were transferred to Excel (Microsoft Office Professional, version 14.0.7106.5003) for analysis. CFTR specific current was measured as the average amplitude of the increase in current elicited upon addition forskolin and ending upon addition of the CFTR channel specific blocker CFTR-172. This average is equivalent to the sum of the average forskolin activated and the average VX770-potentiated currents. The average current measured in vehicle (0.1% DMSO) treated cells, Iv, was subtracted from the current for the test article, ITA, or from the corrector reference standard VX809 (3 μM ISTD. For replicate measurements, the average vehicle subtracted response for the test article, was normalized to the average vehicle subtracted […] response of the reference corrector VX809 (3 μM). INSC=(ITA−IV)(ave)/(ISTD−IV)(ave) (Equation 1)
A second endpoint, for the equivalent current assay, evaluated was NAUC, the normalized area under the curve (AUC) measuring the response after addition of forskolin and VX770 to the time point right before the addition of the CFTR inhibitor. The AUC is effectively the average response multiplied by the duration of the response. The AUC of the test article, AUCTA was then corrected by subtracting the average vehicle response, AUCV,ave over the same time range, and normalized as for the inhibitor-sensitive current to the difference of the corrector reference standard VX809 (3 μM VX809r,ave and the vehicle response: NAUCTA=[AUCTA−AUCV,ave]/[AUCVx809r,ave−AUCV,ave](Equation 2).
The normalized value for DMSO is 0.0 and for VX-809 alone is 1.0. Combinations of compounds with VX-809 that give normalized values greater than 1.0 show activity in the combination assay. A value of 2 means the test compound doubles the effect to VX-809 alone.
Experiments were run with a minimum of n=4 replicates per concentration. […]

| SMILES | NAUC (normalized area under the curve), Test Conc 3 uM | NAUC (normalized area under the curve), Test Conc 10 uM |
| --- | --- | --- |
| CN1CCN(C(=O)CCNC(=O)c2cc(-c3ccc(F)cc3)on2)CC1 [Example 1, 5-(4-fluorophenyl)-N-(3-(4-methylpiperazin-1-yl)-3-oxopropyl)isoxazole-3-carboxamide] | ++ (NAUC “++” refers to an observed NAUC 170-140% of positive control) | +++ (NAUC “+++” refers to an observed NAUC >170% of positive control) |
| O=C(NCCC(=O)N1CCCC1)c1cc(-c2ccc(F)cc2)on1 [Example 2] | ++ (NAUC “++” refers to an observed NAUC 170-140% of positive control) | +++ (NAUC “+++” refers to an observed NAUC >170% of positive control) |
| CCN(CC)C(=O)CCNC(=O)c1cc(-c2ccc(F)cc2)on1 [Example 3] | ++ (NAUC “++” refers to an observed NAUC 170-140% of positive control) | +++ (NAUC “+++” refers to an observed NAUC >170% of positive control) |
| O=C(NCCC(=O)N1CCCCC1)c1cc(-c2ccc(F)cc2)on1 [Example 4] | ++ (NAUC “++” refers to an observed NAUC 170-140% of positive control) | +++ (NAUC “+++” refers to an observed NAUC >170% of positive control) |
| O=C(CCNC(=O)c1cc(-c2ccc(F)cc2)on1)NCC1CC1 [Example 6] | ++ (NAUC “++” refers to an observed NAUC 170-140% of positive control) | +++ (NAUC “+++” refers to an observed NAUC >170% of positive control) |
| O=C(NCCC(=O)N1CCC1)c1cc(-c2ccc(F)cc2)on1 [Example 8] | +++ (NAUC “+++” refers to an observed NAUC >170% of positive control) | +++ (NAUC “+++” refers to an observed NAUC >170% of positive control) |
| O=C(NCCC(=O)N1CCOCC1)c1cc(-c2ccc(F)cc2)on1 [Example 10] | ++ (NAUC “++” refers to an observed NAUC 170-140% of positive control) | +++ (NAUC “+++” refers to an observed NAUC >170% of positive control) |
| O=C(CCNC(=O)c1cc(-c2ccc(F)cc2)on1)Nc1ccccn1 [Example 13] | + (NAUC “+” refers to an observed NAUC <140% of positive control) | ++ (NAUC “++” refers to an observed NAUC 170-140% of positive control) |
| CN1CCN(C(=O)CCCNC(=O)c2cc(-c3ccc(F)cc3)on2)CC1 [Example 14, 5-(4-fluorophenyl)-N-(4-(4-methylpiperazin-1-yl)-4-oxobutyl)isoxazole-3-carboxamide] | +++ (NAUC “+++” refers to an observed NAUC >170% of positive control) | +++ (NAUC “+++” refers to an observed NAUC >170% of positive control) |
| CN1CCN(C(=O)CCCCNC(=O)c2cc(-c3ccc(F)cc3)on2)CC1 [Example 15, 5-(4-fluorophenyl)-N-(5-(4-methylpiperazin-1-yl)-5-oxopentyl)isoxazole-3-carboxamide] | +++ (NAUC “+++” refers to an observed NAUC >170% of positive control) | +++ (NAUC “+++” refers to an observed NAUC >170% of positive control) |
| O=C(NCCCCC(=O)N1CCC1)c1cc(-c2ccc(F)cc2)on1 [Example 16, N-(5-(azetidin-1-yl)-5-oxopentyl)-5-(4-fluorophenyl)isoxazole-3-carboxamide] | +++ (NAUC “+++” refers to an observed NAUC >170% of positive control) | +++ (NAUC “+++” refers to an observed NAUC >170% of positive control) |
| O=C(NCCc1ccccc1)c1cc(-c2ccc(F)cc2)on1 [Example 17, 5-(4-fluorophenyl)-N-phenethylisoxazole-3-carboxamide] | + (NAUC “+” refers to an observed NAUC <140% of positive control) | ++ (NAUC “++” refers to an observed NAUC 170-140% of positive control) |
| NS(=O)(=O)c1ccc(CNC(=O)c2cc(-c3ccc(F)cc3)on2)cc1 [Example 18] | ++ (NAUC “++” refers to an observed NAUC 170-140% of positive control) | ++ (NAUC “++” refers to an observed NAUC 170-140% of positive control) |
| CC(C)Oc1ccc(CNC(=O)c2cc(-c3ccc(F)cc3)on2)cc1 [Example 19] | + (NAUC “+” refers to an observed NAUC <140% of positive control) | + (NAUC “+” refers to an observed NAUC <140% of positive control) |
| CC(C)OCCNC(=O)c1cc(-c2ccc(F)cc2)on1 [Example 20] | + (NAUC “+” refers to an observed NAUC <140% of positive control) | ++ (NAUC “++” refers to an observed NAUC 170-140% of positive control) |
| O=C(NC[C@@H]1CCCO1)c1cc(-c2ccc(F)cc2)on1 [Example 21] | + (NAUC “+” refers to an observed NAUC <140% of positive control) | ++ (NAUC “++” refers to an observed NAUC 170-140% of positive control) |
| CC(C)CNC(=O)c1cc(-c2ccc(F)cc2)on1 [Example 22] | + (NAUC “+” refers to an observed NAUC <140% of positive control) | ++ (NAUC “++” refers to an observed NAUC 170-140% of positive control) |
| O=C(NCc1cccnc1)c1cc(-c2ccc(F)cc2)on1 [Example 24] | ++ (NAUC “++” refers to an observed NAUC 170-140% of positive control) | ++ (NAUC “++” refers to an observed NAUC 170-140% of positive control) |
| O=C(NCc1cccc(F)c1F)c1cc(-c2ccc(F)cc2)on1 [Example 25] | + (NAUC “+” refers to an observed NAUC <140% of positive control) | + (NAUC “+” refers to an observed NAUC <140% of positive control) |
| CCNC(=O)c1cc(-c2ccc(F)cc2)on1 [Example 26] | +++ (NAUC “+++” refers to an observed NAUC >170% of positive control) | +++ (NAUC “+++” refers to an observed NAUC >170% of positive control) |
| O=C(NCc1ccccc1)c1cc(-c2ccc(F)cc2)on1 [Example 27] | ++ (NAUC “++” refers to an observed NAUC 170-140% of positive control) | ++ (NAUC “++” refers to an observed NAUC 170-140% of positive control) |
| N#Cc1ccc(CNC(=O)c2cc(-c3ccc(F)cc3)on2)cc1 [Example 28] | + (NAUC “+” refers to an observed NAUC <140% of positive control) | + (NAUC “+” refers to an observed NAUC <140% of positive control) |
| O=C(NC1CCCC1)c1cc(-c2ccc(F)cc2)on1 [Example 29] | ++ (NAUC “++” refers to an observed NAUC 170-140% of positive control) | ++ (NAUC “++” refers to an observed NAUC 170-140% of positive control) |
